Experimental data published in ChEMBL document CHEMBL6177948, “Discovery of potential Leonurine-based therapeutic lead MJ210 attenuates Parkinson's disease pathogenesis via NF-κB and MAPK pathways: Mechanistic insights from in vitro and in vivo rotenone models” (Eur J Med Chem, 2025).
Calls of active or inactive are those of the source. The calls are words filed in the database; no cut-off is given here.

Experiments:
[1] = test system: Rattus norvegicus; assay: Anti-inflammatory activity in rotenone-induced male Wistar rat model assessed as reduction in COX2 expression level in substantia nigra at 5 mg/kg, ip pretreated with compound every alternative days followed by rotenone addition and measured after 42 days by ELISA; format: functional, organism-based; conditions: time 42.0 day
[2] = Drug uptake in male Wistar rat brain at 5 mg/kg, ip measured after 6 hrs by HPLC analysis; format: ADME, organism-based; conditions: in vivo
[3] = test system: Rattus norvegicus; assay: Anti-parkinson activity in rotenone-induced neurodegeneration in male Wistar rat model assessed as decrease neuronal damage in cortex at 5 mg/kg, ip pretreated with compound every alternative days followed by rotenone addition and measured after 42 days by Nissl staining based analysis; format: functional, organism-based; conditions: time 42.0 day
[4] = test system: Rattus norvegicus; assay: Improvement of motor dysfunction in rotenone-induced male Wistar rat model assessed as reduction in number of falls at 5 mg/kg, ip pretreated with compound every alternative days followed by rotenone addition and measured after 42 days by rotarod test; format: functional, organism-based; conditions: time 42.0 day
[5] = test system: Rattus norvegicus; assay: In vivo inhibition of MAPK signaling pathway in rotenone-induced parkinson disease male Wistar rat model assessed as reduction in ERK1/2 phosphorylation level in substantia nigra at 5 mg/kg, ip pretreated with compound every alternative days followed by rotenone addition and measured after 42 days by Western blotting analysis; format: functional, organism-based; conditions: time 42.0 day
[6] = test system: Rattus norvegicus; assay: Anti-parkinson activity in rotenone-induced neurodegeneration in male Wistar rat model assessed as reduction in necrosis in striatum at 5 mg/kg, ip pretreated with compound every alternative days followed by rotenone addition and measured after 42 days by Nissl staining based analysis; format: functional, organism-based; conditions: time 42.0 day
[7] = Toxicity in male Wistar rat assessed as change in kidney morphology at 1 to 10 mg/kg by H and E staining based analysis; format: organism-based; conditions: in vivo, dose 1-10 mg/kg
[8] = test system: SH-SY5Y; assay: Anti-inflammatory activity against rotenone-induced human SH-SY5Y cells assessed as reduction in IL-6 mRNA expression level by RT-qPCR analysis; format: functional, cell-based
[9] = test system: SH-SY5Y; assay: Anti-apoptotic activity in rotenone-induced human SH-SY5Y cells assessed as reduction in Caspase-3 expression by Western blotting analysis; format: functional, cell-based
[10] = test system: Rattus norvegicus; assay: Anti-parkinson activity in rotenone-induced neurodegeneration in male Wistar rat model assessed as reduction in necrosis in cortex at 5 mg/kg, ip pretreated with compound every alternative days followed by rotenone addition and measured after 42 days by Nissl staining based analysis; format: functional, organism-based; conditions: time 42.0 day
[11] = test system: Rattus norvegicus; assay: Anti-parkinson activity in rotenone-induced male Wistar rat model assessed as increase in cage lid hold time at 5 mg/kg, ip pretreated with compound every alternative days followed by rotenone addition and measured after 42 days by inverted grid test; format: functional, organism-based; conditions: time 42.0 day
[12] = test system: Rattus norvegicus; assay: Anti-inflammatory activity in rotenone-induced male Wistar rat model assessed as reduction in PGE2 expression level in striatum at 5 mg/kg, ip pretreated with compound every alternative days followed by rotenone addition and measured after 42 days by ELISA; format: functional, organism-based; conditions: time 42.0 day
[13] = test system: Rattus norvegicus; assay: Anti-parkinson activity in rotenone-induced neurodegeneration in male Wistar rat model assessed as reduced edema in striatum at 5 mg/kg, ip pretreated with compound every alternative days followed by rotenone addition and measured after 42 days by H and E staining based analysis; format: functional, organism-based; conditions: time 42.0 day
[14] = test system: Rattus norvegicus; assay: Anti-inflammatory activity in rotenone-induced male Wistar rat model assessed as reduction in COX2 expression level in striatum at 5 mg/kg, ip pretreated with compound every alternative days followed by rotenone addition and measured after 42 days by ELISA; format: functional, organism-based; conditions: time 42.0 day
[15] = test system: Rattus norvegicus; assay: Anti-parkinson activity in rotenone-induced male Wistar rat model assessed as reduction in rotenone-induced behavioral impairment by measuring time in central zone at 5 mg/kg, ip pretreated with compound every alternative days followed by rotenone addition and measured after 42 days by open field test; format: functional, organism-based; conditions: time 42.0 day
[16] = test system: Rattus norvegicus; assay: Anti-parkinson activity in rotenone-induced neurodegeneration in male Wistar rat model assessed as minimal neuronal loss in striatum at 5 mg/kg, ip pretreated with compound every alternative days followed by rotenone addition and measured after 42 days by H and E staining based analysis; format: functional, organism-based; conditions: time 42.0 day
[17] = test system: Rattus norvegicus; assay: Anti-parkinson activity in rotenone-induced male Wistar rat model assessed as prevention of rotenone-induced dopaminergic neuronal death at 5 mg/kg, ip by immunoblotting analysis; format: functional, organism-based
[18] = test system: SH-SY5Y; assay: Neuroprotective activity against rotenone-induced cytotoxicity in human SH-SY5Y cells assessed as increase in cell viability at 1 to 20 uM incubated for 24 hrs by MTT assay relative to control; format: functional; conditions: dose 1-20 µM
[19] = test system: SH-SY5Y; assay: Anti-inflammatory activity against rotenone-induced human SH-SY5Y cells assessed as reduction in TNF-alpha mRNA expression level by RT-qPCR analysis; format: functional, cell-based
[20] = test system: Rattus norvegicus; assay: Anti-parkinson activity in rotenone-induced male Wistar rat assessed as increase in TH positive fiber density in striatum at 5 mg/kg, ip pretreated with compound every alternative days followed by rotenone addition and measured after 42 days by immunofluorescence staining based analysis; format: functional, organism-based; conditions: time 42.0 day
[21] = test system: SH-SY5Y; assay: Inhibition of MAPK signaling pathway in rotenone-induced human SH-SY5Y cells assessed as reduction in JNK phosphorylation level by ELISA; format: cell-based
[22] = test system: Rattus norvegicus; assay: Anti-inflammatory activity in rotenone-induced male Wistar rat model assessed as reduction in IL-1beta expression level in striatum at 5 mg/kg, ip pretreated with compound every alternative days followed by rotenone addition and measured after 42 days by ELISA; format: functional, organism-based; conditions: time 42.0 day
[23] = test system: Rattus norvegicus; assay: Anti-parkinson activity in rotenone-induced neurodegeneration in male Wistar rat model assessed as decrease count of pyknotic cells in cortex at 5 mg/kg, ip pretreated with compound every alternative days followed by rotenone addition and measured after 42 days by H and E staining based analysis; format: functional, organism-based; conditions: time 42.0 day
[24] = test system: SH-SY5Y; assay: Neuroprotective activity against rotenone-induced mitochondrial ROS generation in human SH-SY5Y cells assessed as decrease in ROS level at 5 uM preincubated with compound for 24 hrs followed by rotenone addition and measured after 24 hrs by […] fluorescence microscopic analysis; format: functional, cell-based; conditions: time 48.0 hrs
[25] = test system: Rattus norvegicus; assay: Anti-parkinson activity in rotenone-induced male Wistar rat model assessed as reduction in climbing time at 5 mg/kg, ip pretreated with compound every alternative days followed by rotenone addition and measured after 42 days by pole test; format: functional, organism-based; conditions: time 42.0 day
[26] = test system: SH-SY5Y; assay: Reversal of rotenone-induced mitochondrial membrane depolarization in human SH-SY5Y cells assessed as decrease in JC-10 monomers by measuring green fluorescence at 5 uM preincubated with compound for 24 hrs followed by rotenone addition and measured after 24 hrs by JC-10 based fluorescence microscopic analysis; format: functional, cell-based
[27] = biological target: Transcription factor p65 (Homo sapiens) (UniProt Q04206); assay: Inhibition of rotenone-induced NFkappaB p65 translocation from cytosol to nucleus in human SH-SY5Y cells pretreated with compound followed by rotenone addition by DAPI staining based immunocytochemistry analysis; format: cell-based
[28] = test system: SH-SY5Y; assay: Anti-inflammatory activity in rotenone-induced human SH-SY5Y cells assessed as reduction in IL-6 expression by Western blotting analysis; format: functional, cell-based
[29] = test system: SH-SY5Y; assay: Anti-apoptotic activity in rotenone-induced human SH-SY5Y cells assessed as increase in Bcl-xL expression by Western blotting analysis; format: functional, cell-based
[30] = test system: Rattus norvegicus; assay: Anti-inflammatory activity in rotenone-induced male Wistar rat model assessed as reduction in IL-1beta expression level in substantia nigra at 5 mg/kg, ip pretreated with compound every alternative days followed by rotenone addition and measured after 42 days by ELISA; format: functional, organism-based; conditions: time 42.0 day
[31] = test system: SH-SY5Y; assay: Inhibition of MAPK signaling pathway in rotenone-induced human SH-SY5Y cells assessed as reduction in P-38 phosphorylation level by ELISA; format: cell-based
[32] = test system: SH-SY5Y; assay: Neuroprotective activity against rotenone-induced ROS formation in human SH-SY5Y cells assessed as reduction in ROS level by measuring fluorescence intensity at 5 uM preincubated with compound for 24 hrs followed by rotenone addition and measured after 24 hrs by CellRox reagent based fluorescence microscopic analysis; format: functional, cell-based; conditions: time 48.0 hrs
[33] = test system: SH-SY5Y; assay: Reversal of rotenone-induced mitochondrial membrane depolarization in human SH-SY5Y cells assessed as increase in aggregates fluorescence intensity at 5 uM preincubated with compound for 24 hrs followed by rotenone addition and measured after 24 hrs by JC-10 based fluorescence microscopic analysis; format: functional, cell-based; conditions: time 48.0 hrs

Chain of Transcription factor p65 (Homo sapiens) (Q04206 whole entry): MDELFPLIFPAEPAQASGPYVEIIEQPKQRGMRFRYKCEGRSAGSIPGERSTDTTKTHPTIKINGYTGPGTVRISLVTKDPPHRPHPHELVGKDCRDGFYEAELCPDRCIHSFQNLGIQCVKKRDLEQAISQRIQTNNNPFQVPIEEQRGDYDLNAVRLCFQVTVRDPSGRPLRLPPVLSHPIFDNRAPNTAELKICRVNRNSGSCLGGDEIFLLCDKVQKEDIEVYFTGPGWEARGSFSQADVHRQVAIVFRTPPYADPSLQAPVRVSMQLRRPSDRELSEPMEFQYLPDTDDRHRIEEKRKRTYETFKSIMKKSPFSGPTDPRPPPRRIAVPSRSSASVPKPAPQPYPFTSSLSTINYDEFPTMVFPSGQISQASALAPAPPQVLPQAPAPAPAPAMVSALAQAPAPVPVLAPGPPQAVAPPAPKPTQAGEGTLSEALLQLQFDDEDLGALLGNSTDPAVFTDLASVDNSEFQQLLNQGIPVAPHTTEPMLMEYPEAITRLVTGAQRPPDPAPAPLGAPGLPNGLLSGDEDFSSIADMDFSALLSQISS

With `COc1cc(CCC(=O)N2CCCCC2)cc(OC)c1OC(=O)c1ccccn1` the Activity [1] was “Active”, the Drug uptake [2] was “Active” and the Activity [3] was “Active”. For the same compound, the Activity [4] was “Active”, the inhibition [5] was “Active” and the Activity [6] was “Active”. For the same compound, the Activity [7] was “Non-toxic”, the Activity [8] was “Active” and the Activity [9] was “Active”. The Activity [10] was “Active”, the Activity [11] was “Active” and the Activity [12] was “Active”. For the same compound, the Activity [13] was “Active”, the Activity [14] was “Active” and the Activity [15] was “Active”. For the same compound, the Activity [16] was “Active”, the Activity [17] was “Active” and the Activity [18] was 81.9%. The Activity [19] was “Active”, the Activity [20] was “Active” and the inhibition [21] was “Active”. For the same compound, the Activity [22] was “Active”, the Activity [23] was “Active” and the Activity [24] was “Active”. For the same compound, the Activity [25] was “Active”, the Activity [26] was “Active” and the inhibition [27] was “Active”. For the same compound, the Activity [28] was “Active”, the Activity [29] was “Active” and the Activity [30] was “Active”. The inhibition [31] was “Active”, the Activity [32] was “Active” and the Activity [33] was “Active”.
